PMC13524802, “Unique adaptations in sulfatases underpin colonic mucin degradation by Akkermansia muciniphila” (Nature Microbiology, 2026)

How the values were obtained:
Amuc0491^3S-Gal/GalNAc = molecular target: T1, Amuc0491^3S-Gal/GalNAc (Akkermansia muciniphila, UniProt B2UNV9); assay: HPAEC and microfluidic desulfation assays; assay type: biochemical; conditions: 5 mM CaCl2, 150 mM NaCl; kinetics (kcat/Km only) with labelled compound
T1 construct: gene Amuc_0491; recombinant, N-terminal His6 (pETite), E. coli TUNER (DE3)
T1 sequence (B2UNV9 entry or part of it): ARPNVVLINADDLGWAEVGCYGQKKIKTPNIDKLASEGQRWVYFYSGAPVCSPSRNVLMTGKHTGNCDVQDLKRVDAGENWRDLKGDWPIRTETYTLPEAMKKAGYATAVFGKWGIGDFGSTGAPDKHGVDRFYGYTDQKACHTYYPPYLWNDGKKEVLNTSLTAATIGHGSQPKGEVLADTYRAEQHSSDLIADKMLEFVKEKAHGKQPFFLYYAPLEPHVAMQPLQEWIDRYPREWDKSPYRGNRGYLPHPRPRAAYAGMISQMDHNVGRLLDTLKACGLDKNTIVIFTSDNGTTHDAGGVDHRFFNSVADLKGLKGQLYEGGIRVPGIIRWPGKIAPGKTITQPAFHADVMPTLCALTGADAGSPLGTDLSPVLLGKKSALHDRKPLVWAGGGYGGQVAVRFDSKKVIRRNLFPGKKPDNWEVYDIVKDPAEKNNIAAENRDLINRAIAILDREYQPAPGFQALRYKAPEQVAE

Amuc1755^4S-Gal [1] = molecular target: T2, Amuc1755^4S-Gal (Akkermansia muciniphila, UniProt B2UML7, E464A); assay: HPAEC and TLC desulfation assay; assay type: biochemical; conditions: overnight, 37 °C
T2 construct: gene Amuc_1755; recombinant, N-terminal His6 (pETite), E. coli TUNER (DE3); monomer
T2 sequence (B2UML7 entry or part of it E464A): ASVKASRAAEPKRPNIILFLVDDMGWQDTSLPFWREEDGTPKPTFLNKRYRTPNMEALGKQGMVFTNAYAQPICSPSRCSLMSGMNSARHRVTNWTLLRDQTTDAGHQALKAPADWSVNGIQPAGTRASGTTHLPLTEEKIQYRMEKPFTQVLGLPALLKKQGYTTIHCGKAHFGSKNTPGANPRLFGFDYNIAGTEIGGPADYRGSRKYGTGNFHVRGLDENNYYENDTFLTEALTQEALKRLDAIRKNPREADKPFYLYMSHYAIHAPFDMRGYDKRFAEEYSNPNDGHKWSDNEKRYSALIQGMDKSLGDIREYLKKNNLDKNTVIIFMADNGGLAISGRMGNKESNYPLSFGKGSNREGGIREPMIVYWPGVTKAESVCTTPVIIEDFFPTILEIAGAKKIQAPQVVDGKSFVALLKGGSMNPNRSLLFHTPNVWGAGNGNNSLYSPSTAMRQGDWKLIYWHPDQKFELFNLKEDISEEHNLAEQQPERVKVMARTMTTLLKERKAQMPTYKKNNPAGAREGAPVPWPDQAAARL

Amuc1755^4S-Gal [2] = molecular target: T3, Amuc1755^4S-Gal (Akkermansia muciniphila, UniProt B2UML7, E464G); assay: HPAEC and TLC desulfation assay; assay type: biochemical; conditions: overnight, 37 °C
T3 construct: gene Amuc_1755; recombinant, N-terminal His6 (pETite), E. coli TUNER (DE3); monomer
T3 sequence (B2UML7 entry or part of it E464G): as the sequence (B2UML7 entry or part of it E464A) above, with A441G counted along it

[3] = molecular target: Amuc1033^6S-GlcNAc (Akkermansia muciniphila) (UniProt B2UQX4); assay: SEC-MALS; size-exclusion chromatography coupled to light scattering (90°) and refractive index; Agilent BioSEC Advance 300 Å column; 20 mM Tris-HCl pH 7.4, 150 mM NaCl; calibrated with BSA

Molecule | HPAEC and microfluidic desulfation assays (Amuc0491^3S-Gal/GalNAc) | HPAEC and TLC desulfation assay (Amuc1755^4S-Gal [1]) | HPAEC and TLC desulfation assay (Amuc1755^4S-Gal [2]) | stoichiometry N [3]
O=S(=O)(O)O[C@H]1[C@@H](O)[C@@H](CO)OC(O)[C@@H]1O (stereo partly drawn) [3S-Gal, O3 sulfated D-galactose] | which desulfate O3 sulfated D-galactose (3S-Gal)-containing substrates | – | – | –
CC(=O)N[C@H]1C(O)O[C@H](CO)[C@H](O)[C@@H]1OS(=O)(=O)O (stereo partly drawn) [3S-GalNAc, O3 sulfated N-acetyl-D-galactosamine] | only Amuc0491^3S-Gal/GalNAc was capable of desulfating O3 sulfatedN-acetyl-D-galactosamine (3S-GalNAc) | – | – | –
O=S(=O)(O)O[C@@H]1[C@H](O)[C@@H](O)C(O)O[C@@H]1CO (stereo partly drawn) [4S-Gal, O4 sulfated D-galactose] | – | but reduced activity on 4S-Gal | but reduced activity on 4S-Gal | –
CC(=O)N[C@H]1C(O)O[C@H](CO)[C@H](OS(=O)(=O)O)[C@@H]1O (stereo partly drawn) [4S-GalNAc, O4 sulfated N-acetyl-D-galactosamine] | – | Mutation of Glu464 to Ala and Gly enabled the Amuc1755^4S-Gal to work on 4S-GalNAc | Mutation of Glu464 to Ala and Gly enabled the Amuc1755^4S-Gal to work on 4S-GalNAc | –
Amuc1033^6S-GlcNAc (from UniProt B2UQX4 1-581) (enzyme) | – | – | – | 2
